{"source": "PubChem BioAssay AID1918940", "about": "(Molecular Pharmacology Branch, DTP, NCI, 2023)", "tested_on": "NCI-H211 complex spheroid viability", "assay": "Anticancer human tumor NCI-H211 cell line growth inhibition [LSD1];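 for all read-outs here: luminescent viability read after seven days of drug exposure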;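 for viability, T/C: 100% = DMSO vehicle control viability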", "conditions": "for IC50: curve of first compound; for viability, T/C: stronger effect = lower value", "excerpt": "Multicellular complex tumor spheroid response to LSD1 Inhibitor Iadademstat in combination with a variety of drugs and investigational agents in selected tumor cell lines\nThe current study was undertaken to assess response to LSD1 inhibitors in combination with standard-of-care drugs and investigational agents in solid tumor complex spheroid models as well as in the K-562 leukemia. Complex spheroids include a stromal component modeled by human endothelial cells (HUVEC) and fibroblasts modeled by human mesenchymal stem cells (MSCs). The concentration ranges selected for each drug and investigational agent were based upon clinically achievable concentrations if the clinical Cmax of the agent was known.\nCompounds. The drugs and investigational agents used in this study are listed on Table 1. All of the agents used, including staurosporine (NSC755774) and gemcitabine (NSC613327), were obtained from the Developmental Therapeutics Program, NCI. FDA-approved anticancer drugs are available from the NCI at http://dtp.nci.nih.gov/branches/dscb/oncology_drugset_explanation.html. Drugs and investigational agents were >95% pure by proton nuclear magnetic resonance (NMR) and liquid chromatography/mass spectrometry (LC/MS). Stock solutions were prepared at 400x in DMSO, stored at -70 degrees C, and diluted in fresh medium prior to their use. The final concentration of DMSO in cell culture wells never exceeded 0.25% (v/v). The FDA-approved anticancer drug set is available from the Developmental Therapeutics Program at https://dtp.cancer.gov/organization/dscb/obtaining/available_plates.htm. All drugs and investigational agents were tested over a range starting from a high concentration at or near the clinical Cmax and decreasing in half-log increments. If the clinical Cmax for an agent had not been determined, the highest concentration tested was 10 microM.\nCell Lines. The patient-derived cancer cell (PDC) lines: 292921-168-R-J2-PDC, K24384-001-R-PDC, and 521955-158-R2-J5-PDC pancreatic carcinomas, 556581-035-R-J1 ovarian carcinoma, 324938-238-R-J1-PDC, 855422-203-R-J1-PDC and 883617-216-R-J1-PDC urothelial bladder carcinomas, 743489-274-T-PDC renal cell carcinoma, 138582-R-J1 Merkel cell tumor, K60290-347-R-J1 and K57222-313-R-J1-PDC glioblastomas, 653999-131-R-J2-PDC, LG0703-F948-PDC, and 349418-098-R-PDC non-small cell lung carcinomas, 885512-296-R-J2-PDC, 171881-019-R-J1-PDC breast carcinomas and 186277-243-T-J2-PDC and 233499-124-R-J2-PDC colon carcinomas were obtained from the NCI Patient-Derived Models Repository (PDMR, https://pdmr.cancer.gov). The established cell lines NCI/ADR-RES (RRID:CVCL_14520 and OVCAR-5 (RRID:CVCL_1628) ovarian carcinomas, 786-O (RRID:CVCL_1051) and A498 (RRID:CVCL_A498) renal cell carcinoma, NCI-H211 (ATCC, cat. CRL-5824; RRID:CVCL_1529), NCI-H196 (ATCC, cat. CRL-5823, RRID:CVCL_1509), SW 1271 (ATCC, cat. CRL-2177, RRID:CVCL_1716) and NCI-H1876 (ATCC, cat. CRL-5902, RRID:CVCL_1503) small cell lung carcinomas, MDA-MB-231 (RRID:CVCL_0062) and MDA-MB-468 (RRID:CVCL_0419)breast carcinomas (10-12). Pooled donor human umbilical vein endothelial cells (HUVEC, Lonza, cat. CC-2519) and human mesenchymal stem cells (hMSC, Lonza, cat. PT-2501) were purchased from Lonza (Walkersville, MD).\nCell Culture. All cells were maintained in an incubator at 37 degrees C and 5% CO2 with 95% humidity. The PDC lines were cultured according to standard operating procedures established by the NCI PDMR (https://pdmr.cancer.gov). Briefly all PDCs were thawed and cultured in Matrigel-coated flasks prepared with a working solution of 1X Ham's F-12 nutrient mix, without supplementation (Invitrogen, Waltham, MA, cat. 11765054), 100 U/mL penicillin-streptomycin (Invitrogen, cat. 15140122), and 2.5% Matrigel (Corning Inc., Corning, NY, cat. 354248) for the first three passages. […]"}
{"smiles": "Nc1ccn(C2OC(CO)C(O)C2(F)F)c(=O)n1", "note": "(stereo not given) + NC1CC1c1ccc(-c2cccc(O)c2)cc1", "values": [{"measurement": "IC50", "setting": "second compound 0.1 µM", "result": "< 0.949", "unit": "nM"}, {"measurement": "IC50", "setting": "second compound 0.316 µM", "result": "< 0.949", "unit": "nM"}, {"measurement": "IC50", "setting": "second compound 1 µM", "result": "< 0.949", "unit": "nM"}, {"measurement": "IC50", "setting": "second compound 3.16 µM", "result": "< 0.949", "unit": "nM"}, {"measurement": "IC50", "setting": "second compound 10 µM", "result": "< 0.949", "unit": "nM"}, {"measurement": "viability, T/C", "setting": "second compound 0.1 µM, first compound 0.000949 µM", "result": 4.79, "unit": "%"}, {"measurement": "viability, T/C", "setting": "second compound 0.1 µM, first compound 0.003 µM", "result": 3.12, "unit": "%"}, {"measurement": "viability, T/C", "setting": "second compound 0.1 µM, first compound 0.00949 µM", "result": 3.86, "unit": "%"}, {"measurement": "viability, T/C", "setting": "second compound 0.1 µM, first compound 0.03 µM", "result": 4.15, "unit": "%"}, {"measurement": "viability, T/C", "setting": "second compound 0.1 µM, first compound 0.0949 µM", "result": 4.2, "unit": "%"}, {"measurement": "viability, T/C", "setting": "second compound 0.1 µM, first compound 0.3 µM", "result": 3.74, "unit": "%"}, {"measurement": "viability, T/C", "setting": "second compound 0.316 µM, first compound 0.000949 µM", "result": 3.95, "unit": "%"}, {"measurement": "viability, T/C", "setting": "second compound 0.316 µM, first compound 0.003 µM", "result": 4.1, "unit": "%"}, {"measurement": "viability, T/C", "setting": "second compound 0.316 µM, first compound 0.00949 µM", "result": 4.15, "unit": "%"}, {"measurement": "viability, T/C", "setting": "second compound 0.316 µM, first compound 0.03 µM", "result": 3.65, "unit": "%"}, {"measurement": "viability, T/C", "setting": "second compound 0.316 µM, first compound 0.0949 µM", "result": 3.64, "unit": "%"}, {"measurement": "viability, T/C", "setting": "second compound 0.316 µM, first compound 0.3 µM", "result": 3.81, "unit": "%"}, {"measurement": "viability, T/C", "setting": "second compound 1 µM, first compound 0.000949 µM", "result": 3.83, "unit": "%"}, {"measurement": "viability, T/C", "setting": "second compound 1 µM, first compound 0.003 µM", "result": 4.15, "unit": "%"}, {"measurement": "viability, T/C", "setting": "second compound 1 µM, first compound 0.00949 µM", "result": 4.41, "unit": "%"}, {"measurement": "viability, T/C", "setting": "second compound 1 µM, first compound 0.03 µM", "result": 3.58, "unit": "%"}, {"measurement": "viability, T/C", "setting": "second compound 1 µM, first compound 0.0949 µM", "result": 3.35, "unit": "%"}, {"measurement": "viability, T/C", "setting": "second compound 1 µM, first compound 0.3 µM", "result": 4.53, "unit": "%"}, {"measurement": "viability, T/C", "setting": "second compound 3.16 µM, first compound 0.000949 µM", "result": 5.21, "unit": "%"}, {"measurement": "viability, T/C", "setting": "second compound 3.16 µM, first compound 0.003 µM", "result": 4.54, "unit": "%"}, {"measurement": "viability, T/C", "setting": "second compound 3.16 µM, first compound 0.00949 µM", "result": 4.13, "unit": "%"}, {"measurement": "viability, T/C", "setting": "second compound 3.16 µM, first compound 0.03 µM", "result": 4.09, "unit": "%"}, {"measurement": "viability, T/C", "setting": "second compound 3.16 µM, first compound 0.0949 µM", "result": 3.28, "unit": "%"}, {"measurement": "viability, T/C", "setting": "second compound 3.16 µM, first compound 0.3 µM", "result": 4.65, "unit": "%"}, {"measurement": "viability, T/C", "setting": "second compound 10 µM, first compound 0.000949 µM", "result": 4.67, "unit": "%"}, {"measurement": "viability, T/C", "setting": "second compound 10 µM, first compound 0.003 µM", "result": 4.95, "unit": "%"}, {"measurement": "viability, T/C", "setting": "second compound 10 µM, first compound 0.00949 µM", "result": 4.53, "unit": "%"}, {"measurement": "viability, T/C", "setting": "second compound 10 µM, first compound 0.03 µM", "result": 5.27, "unit": "%"}, {"measurement": "viability, T/C", "setting": "second compound 10 µM, first compound 0.0949 µM", "result": 3.89, "unit": "%"}, {"measurement": "viability, T/C", "setting": "second compound 10 µM, first compound 0.3 µM", "result": 4.22, "unit": "%"}]}
{"smiles": "O=C(c1cc(Cc2n[nH]c(=O)c3ccccc23)ccc1F)N1CCN(C(=O)C2CC2)CC1", "note": "+ NC1CC1c1ccc(-c2cccc(O)c2)cc1", "values": [{"measurement": "IC50", "setting": "second compound 0.1 µM", "result": "< 31.6", "unit": "nM"}, {"measurement": "IC50", "setting": "second compound 0.316 µM", "result": "< 31.6", "unit": "nM"}, {"measurement": "IC50", "setting": "second compound 1 µM", "result": "< 31.6", "unit": "nM"}, {"measurement": "IC50", "setting": "second compound 3.16 µM", "result": "< 31.6", "unit": "nM"}, {"measurement": "IC50", "setting": "second compound 10 µM", "result": "< 31.6", "unit": "nM"}, {"measurement": "viability, T/C", "setting": "second compound 0.1 µM, first compound 0.0316 µM", "result": 47.4, "unit": "%"}, {"measurement": "viability, T/C", "setting": "second compound 0.1 µM, first compound 0.1 µM", "result": 25, "unit": "%"}, {"measurement": "viability, T/C", "setting": "second compound 0.1 µM, first compound 0.316 µM", "result": 7.94, "unit": "%"}, {"measurement": "viability, T/C", "setting": "second compound 0.1 µM, first compound 1 µM", "result": 5.7, "unit": "%"}, {"measurement": "viability, T/C", "setting": "second compound 0.1 µM, first compound 3.16 µM", "result": 6.16, "unit": "%"}, {"measurement": "viability, T/C", "setting": "second compound 0.1 µM, first compound 10 µM", "result": 5.03, "unit": "%"}, {"measurement": "viability, T/C", "setting": "second compound 0.316 µM, first compound 0.0316 µM", "result": 48.9, "unit": "%"}, {"measurement": "viability, T/C", "setting": "second compound 0.316 µM, first compound 0.1 µM", "result": 24.5, "unit": "%"}, {"measurement": "viability, T/C", "setting": "second compound 0.316 µM, first compound 0.316 µM", "result": 8.13, "unit": "%"}, {"measurement": "viability, T/C", "setting": "second compound 0.316 µM, first compound 1 µM", "result": 5.19, "unit": "%"}, {"measurement": "viability, T/C", "setting": "second compound 0.316 µM, first compound 3.16 µM", "result": 4.85, "unit": "%"}, {"measurement": "viability, T/C", "setting": "second compound 0.316 µM, first compound 10 µM", "result": 5.84, "unit": "%"}, {"measurement": "viability, T/C", "setting": "second compound 1 µM, first compound 0.0316 µM", "result": 44, "unit": "%"}, {"measurement": "viability, T/C", "setting": "second compound 1 µM, first compound 0.1 µM", "result": 22, "unit": "%"}, {"measurement": "viability, T/C", "setting": "second compound 1 µM, first compound 0.316 µM", "result": 7.69, "unit": "%"}, {"measurement": "viability, T/C", "setting": "second compound 1 µM, first compound 1 µM", "result": 5.3, "unit": "%"}, {"measurement": "viability, T/C", "setting": "second compound 1 µM, first compound 3.16 µM", "result": 6.41, "unit": "%"}, {"measurement": "viability, T/C", "setting": "second compound 1 µM, first compound 10 µM", "result": 5.15, "unit": "%"}, {"measurement": "viability, T/C", "setting": "second compound 3.16 µM, first compound 0.0316 µM", "result": 49.2, "unit": "%"}, {"measurement": "viability, T/C", "setting": "second compound 3.16 µM, first compound 0.1 µM", "result": 19.5, "unit": "%"}, {"measurement": "viability, T/C", "setting": "second compound 3.16 µM, first compound 0.316 µM", "result": 8.34, "unit": "%"}, {"measurement": "viability, T/C", "setting": "second compound 3.16 µM, first compound 1 µM", "result": 5.75, "unit": "%"}, {"measurement": "viability, T/C", "setting": "second compound 3.16 µM, first compound 3.16 µM", "result": 6.96, "unit": "%"}, {"measurement": "viability, T/C", "setting": "second compound 3.16 µM, first compound 10 µM", "result": 5.88, "unit": "%"}, {"measurement": "viability, T/C", "setting": "second compound 10 µM, first compound 0.0316 µM", "result": 34.4, "unit": "%"}, {"measurement": "viability, T/C", "setting": "second compound 10 µM, first compound 0.1 µM", "result": 17.2, "unit": "%"}, {"measurement": "viability, T/C", "setting": "second compound 10 µM, first compound 0.316 µM", "result": 8.43, "unit": "%"}, {"measurement": "viability, T/C", "setting": "second compound 10 µM, first compound 1 µM", "result": 5.92, "unit": "%"}, {"measurement": "viability, T/C", "setting": "second compound 10 µM, first compound 3.16 µM", "result": 6.26, "unit": "%"}, {"measurement": "viability, T/C", "setting": "second compound 10 µM, first compound 10 µM", "result": 6.28, "unit": "%"}]}
